From US20040167220A1, “Environmentally safe fungicide and bactericide formulations” (priority 2003, published 2004)

Tests used:
[1] = tested on: Alternaria solani; test: In vitro PDA plate test against fungal plant pathogens; assay type: cell-based; also: key: 0 - no activity, mycelial growth occurred; Fs - Fungistatic activity; Fd - Fungicidal effect - mycelial growth was completely inhibited
[2] = tested on: Botrytis cinerea; test: as above; assay type: cell-based
[3] = tested on: Colletotrichum graminicola; test: as above; assay type: cell-based; also: key: 0 - no activity, mycelial growth occurred; Fs - Fungistatic activity; Fd - Fungicidal effect - mycelial growth was completely inhibited
[4] = tested on: Fusarium moniliforme; test: as above; assay type: cell-based; conditions: sodium benzoate 5.0 mM, pH adjusted with citric acid; also: key: 0 - no activity, mycelial growth occurred; Fs - Fungistatic activity; Fd - Fungicidal effect - mycelial growth was completely inhibited
[5] = tested on: Fusarium nygamai; test: as above; assay type: cell-based; conditions: sodium benzoate 5.0 mM, pH adjusted with citric acid
[6] = tested on: Fusarium proliferatum; test: as above; assay type: cell-based
[7] = tested on: Rhytisma acerinum; test: as above; assay type: cell-based
[8] = tested on: Sclerotinia homoeocarpa; test: as above; assay type: cell-based; conditions: sodium benzoate 5.0 mM, pH adjusted with citric acid
[9] = tested on: Sclerotinia sclerotiorum; test: as above; assay type: cell-based; conditions: sodium benzoate 5.0 mM, pH adjusted with citric acid
[10] = tested on: plant pathogens
Description: The ingredients to be tested were mixed into melted sterilized PDA (potato dextrose agar), cooled to about 55° C., plated onto petri dishes and allowed to solidify. The plates were seeded with plugs of inoculum fungi. The plates were then examined after 2, 4 and 6 days. After one week, plugs showing no growth were removed and placed into untreated solidified PDA to determine viability of the fungi. Viability was determined after 2 and 4 days.
The ingredients to be tested were mixed into melted sterilized PDA, cooled to about 55° C., plated onto petri dishes and allowed to solidify. The plates were seeded with plugs of inoculum fungi. The plates were then examined after 2, 4 and 6 days. After one week, plugs showing no growth were removed and placed into untreated solidified PDA to determine viability of the fungi. Viability was determined after 2 and 4 days.

[11] = tested on: Alternaria solani; conditions: preservative used without the acidic pH of the invention
[12] = tested on: Botrytis cinerea; conditions: preservative used without the acidic pH of the invention; as to Activity against Botrytis cinerea: key: 0 - no activity, mycelial growth occurred; Fs - Fungistatic activity; Fd - Fungicidal effect - mycelial growth was completely inhibited
[13] = tested on: Fusarium nygamai; conditions: preservative used without the acidic pH of the invention
[14] = sodium benzoate 5.0 mM, pH adjusted with citric acid, in PDA
[15] = potassium sorbate and citric acid in PDA, examined after 2, 4, 6 days, viability on untreated PDA
[16] = potassium sorbate/citric acid formulations, with or without surfactants, in PDA

O=C([O-])c1ccccc1.[Na+] [Control C, sodium benzoate]
Activity against Alternaria solani [1, 14]: 0 | Activity against Botrytis cinerea [2, 14]: 0 | Activity against Colletotrichum graminicola [3, 14]: 0 | Activity against Fusarium moniliforme [4]: 0 | Activity against Fusarium nygamai [5]: 0 | Activity against Fusarium proliferatum [6, 14]: 0 | Activity against Rhytisma acerinum [7, 14]: 0 | Activity against Sclerotinia homoeocarpa [8]: 0 | Activity against Sclerotinia sclerotiorum [9]: 0

C/C=C/C=C/C(=O)[O-].[K+] [potassium sorbate]
pathogens killed ([10]; 1 mM (0.0015%), pH 4.1, surfactants added): 7 out of 8 | activity against the broad range of plant pathogens tested ([10]; 5 mM (0.075% solution), pH 4.1): cidal activity | activity against plant pathogens ([10]; 10 mM (0.15% solution), pH above 7.0): inactive or at best exhibits only static activity | number of pathogens with cidal activity ([10]; down to 1 mM sorbate or lower, pH 4.1): two | concentration required to kill Alternaria solani [11]: greater than 2% | concentration required to kill Botrytis cinerea [12]: greater than 2% | concentration required to kill Fusarium nygamai [13]: greater than 2%

C/C=C/C=C/C(=O)[O-].[K+] [Control A, potassium sorbate]
Activity against Alternaria solani [1, 15]: 0 | Activity against Botrytis cinerea [2, 15]: 0 | Activity against Colletotrichum gram. [3, 15]: 0 | Activity against Fusarium proliferatum [6, 15]: 0 | Activity against Rhytisma acerinum [7, 15]: 0

C/C=C/C=C/C(=O)[O-].[K+] [Control B, potassium sorbate]
Activity against Alternaria solani [1, 16]: 0 | Activity against Botrytis cinerea [2, 16]: 0 | Activity against Colletotrichum gram. [3, 16]: 0 | Activity against Fusarium proliferatum [6, 16]: 0 | Activity against Rhytisma acerinum [7, 16]: 0

O=C([O-])c1ccccc1.[Na+] [sodium benzoate]
control of the plant pathogens ([10]; 5 mM (0.072% solution), pH above 7.0): ineffective | species tested being killed ([10]; 5 mM, pH 4.1): 10 out of 10 | species with cidal activity ([10]; 5 mM, pH 4.6): 6 out of 10
